Experiments:
[1] = target: Rho-associated protein kinase 2 (Homo sapiens) (UniProt O75116); conditions: Compound concentration 1000.0 nM
[2] = target: NUAK family SNF1-like kinase 2 (Homo sapiens) (UniProt Q9H093); conditions: Compound concentration 1000.0 nM
[3] = target: Mitogen-activated protein kinase 13 (Homo sapiens) (UniProt O15264); conditions: Compound concentration 1000.0 nM
[4] = target: Serine/threonine-protein kinase ULK1 (Homo sapiens) (UniProt O75385); conditions: Compound concentration 1000.0 nM
[5] = target: cAMP-dependent protein kinase catalytic subunit alpha (Homo sapiens) (UniProt P17612); conditions: Compound concentration 1000.0 nM
[6] = target: Serine/threonine-protein kinase Chk2 (Homo sapiens) (UniProt O96017); conditions: Compound concentration 1000.0 nM
[7] = target: T1, Alpha-2C adrenergic receptor (Homo sapiens, UniProt P18825); experiment: GPCRScan assay: inhibition of Alpha2C; parameters: radioligand conc. used [nm] 0.5 – 1.0, parental cells stable MDCK
T1 sequence (P18825 whole entry): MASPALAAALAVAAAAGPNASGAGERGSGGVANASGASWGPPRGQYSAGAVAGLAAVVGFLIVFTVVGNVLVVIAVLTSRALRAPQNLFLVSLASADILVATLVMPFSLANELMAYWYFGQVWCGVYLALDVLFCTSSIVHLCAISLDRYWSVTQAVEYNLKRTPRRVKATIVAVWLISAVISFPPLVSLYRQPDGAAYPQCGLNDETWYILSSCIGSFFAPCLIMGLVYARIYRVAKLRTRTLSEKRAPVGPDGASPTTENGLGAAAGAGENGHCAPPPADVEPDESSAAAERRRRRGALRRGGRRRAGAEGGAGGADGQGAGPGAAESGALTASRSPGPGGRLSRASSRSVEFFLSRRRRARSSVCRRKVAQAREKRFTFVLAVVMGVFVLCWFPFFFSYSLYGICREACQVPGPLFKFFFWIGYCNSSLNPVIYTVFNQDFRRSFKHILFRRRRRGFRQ

[8] = target: Atypical kinase COQ8A, mitochondrial (Homo sapiens) (UniProt Q8NI60); conditions: Compound concentration 1000.0 nM
Chain of Atypical kinase COQ8A, mitochondrial (Homo sapiens) (Q8NI60 163-647 limits assumed): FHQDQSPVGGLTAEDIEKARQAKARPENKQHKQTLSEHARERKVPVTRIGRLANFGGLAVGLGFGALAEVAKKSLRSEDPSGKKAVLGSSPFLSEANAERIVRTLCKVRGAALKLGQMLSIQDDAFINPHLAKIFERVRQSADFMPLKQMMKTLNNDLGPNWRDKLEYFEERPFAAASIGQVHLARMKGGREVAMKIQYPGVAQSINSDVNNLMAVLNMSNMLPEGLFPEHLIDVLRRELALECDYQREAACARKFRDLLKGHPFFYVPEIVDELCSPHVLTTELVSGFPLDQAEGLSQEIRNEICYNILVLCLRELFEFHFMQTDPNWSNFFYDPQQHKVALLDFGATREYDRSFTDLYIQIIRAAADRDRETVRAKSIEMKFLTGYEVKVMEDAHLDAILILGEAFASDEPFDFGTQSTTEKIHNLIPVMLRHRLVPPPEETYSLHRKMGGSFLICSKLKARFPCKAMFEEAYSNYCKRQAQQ

[9] = target: Dual specificity mitogen-activated protein kinase kinase 5 (Homo sapiens) (UniProt Q13163); conditions: Compound concentration 1000.0 nM
[10] = test system: Epidermal growth factor receptor (Homo sapiens), P00533 [UNDEFINED MUTATION]; conditions: Compound concentration 1000.0 nM
[11] = target: Serine/threonine-protein kinase DCLK3 (Homo sapiens) (UniProt Q9C098); conditions: Compound concentration 1000.0 nM
Chain of Serine/threonine-protein kinase DCLK3 (Homo sapiens) (Q9C098 whole entry): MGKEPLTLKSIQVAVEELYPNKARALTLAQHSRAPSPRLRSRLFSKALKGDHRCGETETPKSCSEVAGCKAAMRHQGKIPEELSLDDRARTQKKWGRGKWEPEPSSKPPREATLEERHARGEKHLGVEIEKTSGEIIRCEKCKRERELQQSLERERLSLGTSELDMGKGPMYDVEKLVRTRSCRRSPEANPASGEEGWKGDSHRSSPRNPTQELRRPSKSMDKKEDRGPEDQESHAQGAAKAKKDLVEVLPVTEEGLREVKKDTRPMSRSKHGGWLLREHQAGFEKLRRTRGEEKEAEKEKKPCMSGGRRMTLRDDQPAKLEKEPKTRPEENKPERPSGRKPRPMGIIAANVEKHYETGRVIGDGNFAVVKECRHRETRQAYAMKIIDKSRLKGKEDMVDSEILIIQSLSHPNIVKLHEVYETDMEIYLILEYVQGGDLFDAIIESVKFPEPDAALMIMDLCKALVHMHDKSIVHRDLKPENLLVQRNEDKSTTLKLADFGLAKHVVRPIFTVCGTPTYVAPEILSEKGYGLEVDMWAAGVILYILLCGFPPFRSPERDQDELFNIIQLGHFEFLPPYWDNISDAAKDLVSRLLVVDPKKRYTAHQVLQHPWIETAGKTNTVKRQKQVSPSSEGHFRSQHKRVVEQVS

[12] = target: Serine/threonine-protein kinase BRSK2 (Homo sapiens) (UniProt Q8IWQ3); conditions: Compound concentration 1000.0 nM
[13] = target: Mitogen-activated protein kinase kinase kinase 7 (Homo sapiens) (UniProt O43318); conditions: Compound concentration 1000.0 nM
[14] = target: Inhibitor of nuclear factor kappa-B kinase subunit epsilon (Homo sapiens) (UniProt Q14164); conditions: Compound concentration 1000.0 nM
Chain of Inhibitor of nuclear factor kappa-B kinase subunit epsilon (Homo sapiens) (Q14164 whole entry): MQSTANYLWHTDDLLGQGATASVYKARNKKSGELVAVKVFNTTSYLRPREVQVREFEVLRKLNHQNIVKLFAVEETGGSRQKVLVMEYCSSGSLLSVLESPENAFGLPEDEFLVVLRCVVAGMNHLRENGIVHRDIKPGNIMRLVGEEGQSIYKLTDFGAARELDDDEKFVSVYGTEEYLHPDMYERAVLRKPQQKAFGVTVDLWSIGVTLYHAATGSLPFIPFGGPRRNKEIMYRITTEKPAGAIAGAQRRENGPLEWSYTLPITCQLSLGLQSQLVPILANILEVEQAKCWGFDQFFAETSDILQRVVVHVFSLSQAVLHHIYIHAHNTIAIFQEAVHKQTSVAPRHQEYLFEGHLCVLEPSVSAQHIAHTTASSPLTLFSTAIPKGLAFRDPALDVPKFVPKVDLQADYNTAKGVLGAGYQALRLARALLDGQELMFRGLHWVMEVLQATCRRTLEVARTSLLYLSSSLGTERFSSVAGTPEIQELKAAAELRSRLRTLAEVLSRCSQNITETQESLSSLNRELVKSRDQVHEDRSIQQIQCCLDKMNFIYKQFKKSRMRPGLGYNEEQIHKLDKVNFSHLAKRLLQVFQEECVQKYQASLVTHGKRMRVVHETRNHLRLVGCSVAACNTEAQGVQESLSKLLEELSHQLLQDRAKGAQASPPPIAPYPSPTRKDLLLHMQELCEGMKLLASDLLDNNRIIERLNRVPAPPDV

[15] = target: Interleukin-1 receptor-associated kinase 1 (Homo sapiens) (UniProt P51617); conditions: Compound concentration 1000.0 nM
Chain of Interleukin-1 receptor-associated kinase 1 (Homo sapiens) (P51617 whole entry, looked up): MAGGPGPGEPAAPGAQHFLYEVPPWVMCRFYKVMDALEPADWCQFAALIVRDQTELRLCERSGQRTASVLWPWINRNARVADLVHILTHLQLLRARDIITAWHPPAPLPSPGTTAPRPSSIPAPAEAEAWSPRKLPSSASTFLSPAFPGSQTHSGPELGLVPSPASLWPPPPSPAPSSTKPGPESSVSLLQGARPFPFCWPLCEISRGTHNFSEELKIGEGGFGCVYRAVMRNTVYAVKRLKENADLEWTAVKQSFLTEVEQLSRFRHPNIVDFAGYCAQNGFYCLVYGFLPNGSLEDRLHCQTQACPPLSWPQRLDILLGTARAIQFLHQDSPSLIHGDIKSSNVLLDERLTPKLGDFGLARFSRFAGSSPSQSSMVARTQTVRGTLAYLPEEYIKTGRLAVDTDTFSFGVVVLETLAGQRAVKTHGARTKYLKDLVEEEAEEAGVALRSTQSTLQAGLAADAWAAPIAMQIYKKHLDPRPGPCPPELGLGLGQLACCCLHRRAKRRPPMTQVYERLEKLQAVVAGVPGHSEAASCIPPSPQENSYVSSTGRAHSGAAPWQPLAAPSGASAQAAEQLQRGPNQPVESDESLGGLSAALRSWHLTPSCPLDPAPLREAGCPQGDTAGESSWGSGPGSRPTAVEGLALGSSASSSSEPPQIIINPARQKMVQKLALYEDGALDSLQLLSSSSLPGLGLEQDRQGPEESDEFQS

[16] = target: Non-receptor tyrosine-protein kinase TYK2 (Homo sapiens) (UniProt P29597); conditions: Compound concentration 1000.0 nM
[17] = target: Proto-oncogene tyrosine-protein kinase receptor Ret (Homo sapiens) (UniProt P07949); conditions: Compound concentration 1000.0 nM
Chain of Proto-oncogene tyrosine-protein kinase receptor Ret (Homo sapiens) (P07949 whole entry): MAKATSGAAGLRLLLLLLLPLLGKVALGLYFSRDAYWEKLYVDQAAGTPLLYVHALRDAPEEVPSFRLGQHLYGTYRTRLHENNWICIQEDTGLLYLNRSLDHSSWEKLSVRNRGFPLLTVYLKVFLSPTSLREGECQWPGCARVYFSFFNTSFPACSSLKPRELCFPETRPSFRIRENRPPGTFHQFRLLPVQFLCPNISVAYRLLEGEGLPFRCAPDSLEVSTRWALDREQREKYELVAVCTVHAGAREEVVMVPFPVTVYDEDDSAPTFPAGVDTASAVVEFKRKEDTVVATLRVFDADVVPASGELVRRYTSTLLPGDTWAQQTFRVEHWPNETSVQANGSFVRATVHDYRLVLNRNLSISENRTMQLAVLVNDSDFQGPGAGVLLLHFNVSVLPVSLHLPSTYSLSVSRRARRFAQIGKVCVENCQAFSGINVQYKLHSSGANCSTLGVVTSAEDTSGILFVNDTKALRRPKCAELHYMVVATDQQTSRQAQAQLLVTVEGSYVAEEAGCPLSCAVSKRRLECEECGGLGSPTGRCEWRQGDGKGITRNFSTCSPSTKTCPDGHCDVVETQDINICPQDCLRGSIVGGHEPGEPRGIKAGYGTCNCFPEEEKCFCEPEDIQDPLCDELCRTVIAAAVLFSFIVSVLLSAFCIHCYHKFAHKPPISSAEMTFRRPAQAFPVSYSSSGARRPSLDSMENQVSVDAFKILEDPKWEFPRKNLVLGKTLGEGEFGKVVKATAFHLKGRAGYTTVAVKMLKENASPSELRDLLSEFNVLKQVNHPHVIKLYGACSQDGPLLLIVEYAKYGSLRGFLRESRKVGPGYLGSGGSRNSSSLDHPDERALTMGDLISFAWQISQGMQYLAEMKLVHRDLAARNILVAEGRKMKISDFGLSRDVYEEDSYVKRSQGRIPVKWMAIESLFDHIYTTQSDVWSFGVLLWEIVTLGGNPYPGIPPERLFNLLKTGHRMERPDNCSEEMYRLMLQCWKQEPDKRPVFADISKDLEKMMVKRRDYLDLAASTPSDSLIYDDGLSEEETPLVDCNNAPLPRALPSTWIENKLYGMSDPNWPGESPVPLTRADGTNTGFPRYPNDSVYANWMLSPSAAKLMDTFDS

[18] = test system: Tyrosine-protein kinase ABL1 (Homo sapiens), P00519 [E255K]; conditions: Compound concentration 1000.0 nM
[19] = target: Cyclin-dependent kinase 4 (Homo sapiens) (UniProt P11802); conditions: Compound concentration 1000.0 nM
[20] = target: G protein-coupled receptor kinase 3 (Homo sapiens) (UniProt P35626); conditions: Compound concentration 1000.0 nM
[21] = target: Serine/threonine-protein kinase SIK1 (Homo sapiens) (UniProt P57059); conditions: Compound concentration 1000.0 nM
[22] = target: Homeodomain-interacting protein kinase 2 (Homo sapiens) (UniProt Q9H2X6); conditions: Compound concentration 1000.0 nM
[23] = target: Serine/threonine-protein kinase D2 (Homo sapiens) (UniProt Q9BZL6); conditions: Compound concentration 1000.0 nM
[24] = target: Mitogen-activated protein kinase 6 (Homo sapiens) (UniProt Q16659); conditions: Compound concentration 1000.0 nM
[25] = target: T2, 5-hydroxytryptamine receptor 1A (Homo sapiens) (UniProt P08908); conditions: Compound concentration 10.0 uM
T2 sequence (whole entry): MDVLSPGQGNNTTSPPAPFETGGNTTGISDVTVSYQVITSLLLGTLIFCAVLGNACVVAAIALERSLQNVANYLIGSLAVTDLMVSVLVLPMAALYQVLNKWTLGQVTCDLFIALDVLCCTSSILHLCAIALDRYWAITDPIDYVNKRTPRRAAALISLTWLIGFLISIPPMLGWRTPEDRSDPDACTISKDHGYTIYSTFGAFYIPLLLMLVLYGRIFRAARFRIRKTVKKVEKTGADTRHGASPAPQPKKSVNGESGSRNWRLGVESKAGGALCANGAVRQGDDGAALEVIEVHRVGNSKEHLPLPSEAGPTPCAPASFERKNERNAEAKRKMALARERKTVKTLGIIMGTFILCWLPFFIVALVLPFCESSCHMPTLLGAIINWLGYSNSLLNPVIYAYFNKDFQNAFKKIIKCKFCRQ

[26] = test system: Tyrosine-protein kinase ABL1 (Homo sapiens), P00519 [T315I]; conditions: Compound concentration 1000.0 nM
[27] = target: Serine/threonine-protein kinase PAK 4 (Homo sapiens) (UniProt O96013); conditions: Compound concentration 1000.0 nM
[28] = test system: Receptor-type tyrosine-protein kinase FLT3 (Homo sapiens), P36888 [N841I]; conditions: Compound concentration 1000.0 nM
[29] = target: Serine/threonine-protein kinase 25 (Homo sapiens) (UniProt O00506); conditions: Compound concentration 1000.0 nM
[30] = target: Serine/threonine-protein kinase 36 (Homo sapiens) (UniProt Q9NRP7); conditions: Compound concentration 1000.0 nM
Chain of Serine/threonine-protein kinase 36 (Homo sapiens) (Q9NRP7 whole entry, the tested form may be a part): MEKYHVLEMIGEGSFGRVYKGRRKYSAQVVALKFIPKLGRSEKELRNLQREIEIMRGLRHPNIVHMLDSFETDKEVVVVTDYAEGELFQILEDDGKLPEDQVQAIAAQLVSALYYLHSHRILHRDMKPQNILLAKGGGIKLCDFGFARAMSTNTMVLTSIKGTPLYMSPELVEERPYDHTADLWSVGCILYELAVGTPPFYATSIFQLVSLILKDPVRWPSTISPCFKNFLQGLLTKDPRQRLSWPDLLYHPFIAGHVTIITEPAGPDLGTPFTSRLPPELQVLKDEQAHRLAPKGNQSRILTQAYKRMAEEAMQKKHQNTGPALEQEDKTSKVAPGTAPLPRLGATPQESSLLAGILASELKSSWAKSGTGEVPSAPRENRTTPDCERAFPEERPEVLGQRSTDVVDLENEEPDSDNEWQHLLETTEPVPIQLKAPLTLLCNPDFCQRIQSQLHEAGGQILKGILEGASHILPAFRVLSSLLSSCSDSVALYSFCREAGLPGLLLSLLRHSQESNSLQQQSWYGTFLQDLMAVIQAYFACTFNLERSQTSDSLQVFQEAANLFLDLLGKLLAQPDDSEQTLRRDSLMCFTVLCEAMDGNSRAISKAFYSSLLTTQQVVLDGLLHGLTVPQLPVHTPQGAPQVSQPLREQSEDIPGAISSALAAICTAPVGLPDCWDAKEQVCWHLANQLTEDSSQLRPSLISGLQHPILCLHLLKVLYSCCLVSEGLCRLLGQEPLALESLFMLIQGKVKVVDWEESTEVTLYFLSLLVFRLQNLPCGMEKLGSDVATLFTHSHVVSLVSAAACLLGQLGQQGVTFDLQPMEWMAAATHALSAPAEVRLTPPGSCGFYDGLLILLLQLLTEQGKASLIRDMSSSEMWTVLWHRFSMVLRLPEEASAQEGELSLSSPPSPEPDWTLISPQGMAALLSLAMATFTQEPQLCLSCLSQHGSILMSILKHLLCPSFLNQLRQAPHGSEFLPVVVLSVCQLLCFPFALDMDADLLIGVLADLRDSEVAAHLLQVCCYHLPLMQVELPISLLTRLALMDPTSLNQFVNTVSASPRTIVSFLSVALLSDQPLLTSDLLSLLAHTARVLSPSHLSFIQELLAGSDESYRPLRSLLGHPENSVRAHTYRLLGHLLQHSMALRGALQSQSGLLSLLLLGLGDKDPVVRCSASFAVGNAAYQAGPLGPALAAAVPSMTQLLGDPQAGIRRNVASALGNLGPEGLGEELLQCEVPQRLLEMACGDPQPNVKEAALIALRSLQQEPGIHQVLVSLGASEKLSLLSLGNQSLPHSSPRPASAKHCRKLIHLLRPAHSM

[31] = target: Epithelial discoidin domain-containing receptor 1 (Homo sapiens) (UniProt Q08345); conditions: Compound concentration 1000.0 nM
[32] = target: Ephrin type-B receptor 3 (Homo sapiens) (UniProt P54753); conditions: Compound concentration 1000.0 nM

| SMILES | residual activity [1] | residual activity [2] | residual activity [3] | residual activity [4] | residual activity [5] | residual activity [6] | Ki ([7]; read-out: Ki) | Ki ([7]; read-out: pKi (converted)) | residual activity [8] | residual activity [9] | residual activity [10] | residual activity [11] | residual activity [12] | residual activity [13] | residual activity [14] | residual activity [15] | residual activity [16] | residual activity [17] | residual activity [18] | residual activity [19] | further results |
| --- | --- | --- | --- | --- | --- | --- | --- | --- | --- | --- | --- | --- | --- | --- | --- | --- | --- | --- | --- | --- | --- |
| CNCc1ccccc1-c1csc([C@@H](C)Nc2nc(C)nc3cc(OC)c(OC)cc23)c1 [BAY-293] | 93% | 97% | 100% | 88% | 100% | 76% | 131 nM | 130 nM | 92% | 91% | 61% | 95% | 100% | 70% | 71% | 71% | 99% | 86% | 75% | 88% | residual activity [20]: 98%; residual activity [21]: 91%; residual activity [22]: 86%; residual activity [23]: 100%; residual activity [24]: 100%; inhibition [25]: 56.5%; residual activity [26]: 83%; residual activity [27]: 97%; residual activity [28]: 77%; residual activity [29]: 89%; residual activity [30]: 100%; residual activity [31]: 100%; residual activity [32]: 100% |
| CNCc1ccccc1-c1csc([C@H](C)Nc2nc(C)nc3cc(OC)c(OC)cc23)c1 [BAY-294] | 100% | 100% | 100% | 91% | 100% | 87% | 95.2 nM | 91.2 nM | 91% | 87% | 100% | 100% | 100% | 75% | 85% | 80% | 100% | 100% | 81% | 77% | residual activity [20]: 91%; residual activity [21]: 100%; residual activity [22]: 76%; residual activity [23]: 99%; residual activity [24]: 100%; inhibition [25]: 93.8%; residual activity [26]: 87%; residual activity [27]: 100%; residual activity [28]: 100%; residual activity [29]: 100%; residual activity [30]: 100%; residual activity [31]: 100%; residual activity [32]: 100% |

Reference: ChEMBL document CHEMBL4507273 (2021)
